How the values were obtained:
women with DOR = experiment: Matched case control study of embryo aneuploidy by preimplantation genetic screening (Example 11); assay type: in vivo, human
Protocol: In a 1:2, matched case control study, 22 consecutive women with DOR, supplemented with DHEA, underwent preimplantation genetic screening (PGS) of embryos during in vitro fertilization (IVF) cycles. Each was matched by patient age and time period of IVF with two control IVF cycles without DHEA supplementation (n=44). PGS was performed for chromosomes X, Y, 13, 16, 18, 21 and 22, and involved determination of numbers and percentages of aneuploid embryos.
We retrieved from our center's computerized research data bank a total of 22 consecutive DOR patients who underwent IVF/PGS while on DHEA supplementation. Only first IVF cycles were analyzed. These cycles were matched with the two control cycles not on DHEA supplementation, based on patient age and year of treatment (44 controls).
Normal age-specific hormone levels were defined by 95% confidence intervals at all ages, as previously reported. Since patients with DOR were, thus, uniformly diagnosed before IVF cycle protocols were determined, they were all supplemented with DHEA, and stimulation adjustments were made.
During the study period all DOR patients at our center routinely received DHEA supplementation. Those not receiving DHEA, therefore, by definition, had age-appropriate ovarian reserve, confirmed by normal anti-Müllerian hormone (AMH), follicle stimulating hormone (FSH) baseline levels and estradiol. Patients receiving DHEA supplementation were prescribed 25 mg of micronized, pharmaceutical grade DHEA, T.I.D, for at least four weeks prior to IVF cycle start. Short-term supplementation was defined as 4 to 12 weeks of DHEA prior to IVF and PGS; supplementation beyond that was considered long-term supplementation.
Patients with premature DOR, or if over 40 years of age, in first treatment cycles universally receive a so-called microdose gonadotropin releasing hormone agonist (GnRH-a) ovarian stimulation protocol, characterized by leuprolide acetate (50 μg/0.1 mL, b.i.d.; Lupron®, Abbot Pharmaceuticals, North Chicago, Ill.) and ovarian stimulation with follicle stimulating hormone (FSH, 300 IU-450 IU daily) and human menopausal gonadotropins (hMG, 150 IU). If under age 40 with normal ovarian reserve patients receive down regulation with full dose GnRH-a (1.0 mg/0.1 mL) and ovarian stimulation with up to 300 IU of gonadotropins, usually half as FSH and half as hMG. Higher luteinizing hormone (LH) contributions to ovarian stimulation, if anything, reduce embryo aneuploidy. The small difference in ovarian stimulation protocols between women with DOR and controls, therefore, potentially biases study outcome towards lower aneuploidy rates in the control population, which received a proportionally higher LH contributions to ovarian stimulation.
PGS was performed, utilizing fluorescence in situ hybridization (FISH) in routine fashion, utilizing probes for seven chromosomes (X, Y, 13, 16, 18, 21 and 22) on day three after fertilization, when embryos reached six to eight cell stages. This restricted chromosome panel is currently routinely utilized for PGS.
A general linear model was constructed to assess DHEA effects on percent aneuploidy after adjustment for age, indications for PGS, stimulation protocol and total gonadotropin dosage utilized. The latter adjustment was made as a surrogate for potential physician biases in how individual patients were stimulated, and potential effects such stimulation biases may have on ploidy.

[1] = tested on: women with diminished ovarian reserve; experiment: Gender of offspring and embryos conceived on DHEA treatment (Example 6); assay type: in vivo, human
Protocol: The treatment protocol for long-term supplementation with DHEA that may improve oocyte and embryo quantity, quality, pregnancy rates and time to conception in women with diminished ovarian reserve, involves 25 mg of micronized, pharmaceutical grade DHEA, TID will usually uniformly raise levels of unconjugated DHEA above about 350 ng/dl, and, therefore, raise baseline testosterone. Estradiol baseline levels may also be raised.
A total of 19 pregnancies were recorded with 16 singleton and 3 twin pregnancies. The medical records of all 19 women were reviewed in order to determine whether they conceived spontaneously, defined as including pregnancies conceived with intrauterine inseminations, or by IVF. If conception had occurred by IVF, it was recorded whether fertilization was spontaneous or by intracytoplasmic sperm injection (ICSI).
As a control group, seven women were selected who had undergone one IVF cycle with preimplantation genetic diagnosis (PGD), while for at least 60 days on DHEA supplementation, but had not conceived. The PGD data, defining each embryo's gender, were recorded. Statistics were performed using a binomial runs test, comparing seen distributions with an expected distribution of 50 percent, with p≦0.05 defining significance.

[2] = DHEA patients n=22, PGS by FISH, seven chromosomes
[3] = 15 offspring of pregnancies achieved through IVF
[4] = 53 embryos from 17 IVF cycles, women on DHEA, all ICSI
[5] = sixteen singleton pregnancies conceived on DHEA for at least 60 days

## C[C@]12CC[C@H](O)CC1=CC[C@@H]1[C@@H]2CC[C@]2(C)C(=O)CC[C@@H]12 [DHEA, Dehydroepiandrosterone]
Women with DOR; DHEA patients n=22
  Embryo Grades (mean ± SD): 3.4±0.4
  Embryos Cryopreserved (n, mean ± SD): 0.7±1.6
  Embryos Transferred (n, mean ± SD): 1.4±0.9
  Embryos Undergoing PGS (n, mean ± SD): 7.3±3.9
Women with DOR; DHEA patients n=22, 25 mg T.I.D. at least four weeks
  Oocytes retrieved (n, mean ± SD): 9.6±6.2
Women with DOR; [2]
  aneuploid embryos (absolute number): 2.8±2.5
  percentages of aneuploidy: 38.2±24.4
Women with DOR; short term supplementation (4-12 weeks), 95% CI -2.871-46.031
  reduction in aneuploidy: 21.6%
[1]; [3]
  female offspring: 3
  male offspring: 12
[1]; [4]
  female embryos by PGD: 26
  male embryos by PGD: 27
[1]; singletons plus twins
  female offspring, final gender distribution: 6
  male offspring, final gender distribution: 15
[1]; [5]
  female offspring: 5
  male offspring: 11

— US9375436B2, “Androgen treatment in females” (priority 2004, dated 2016)
